According to patent US10064797B2, “Topical formulations for UV protection” (TOPGENIX, INC., priority 2014, dated 2018):

Assays:
[1] = UV absorption spectra of the compounds, avobenzone and their combinations; type: physicochemical; conditions: for UV absorption: 320 nm and 400 nm, each compound alone
Method: (§1) In both cases, the absorptivity of these two compounds were studied. In addition, photostability of these two compounds were also assessed by taking a second UV absorption spectra after exposing the compounds to UV. Photostability of sun screening compounds are of critical importance as a compound would be completely ineffective if they lose their UV absorptive qualities shortly after being exposed to solar radiation.
Avobenzone is an example for a known chemical UV absorber that can be combined.

[2] = Photostability: UV absorption spectra before and after UV exposure; type: physicochemical; conditions: before vs after UV exposure; 290 nm to 400 nm; FIGS. 2 and 4
Method: as §1
Turning to FIG. 2, this set of spectra show the effects of UV exposure on 3-hydroxy-2-methoxy-cyclo-2-enone, avobenzone, and combinations thereof over a wavelength range of 290 nm and 400 nm. A first spectrum 210 and a second spectrum 212 are for avobenzone before and after UV exposure. A third spectrum 220 and a fourth spectrum 222 are for 3-hydroxy-2-methoxy-cyclo-2-enone before and after UV exposure, respectively. A fifth spectrum 230 and a sixth spectrum 232 correspond to a combination of 3-hydroxy-2-methoxy-cyclo-2-enone and avobenzone at a ratio of 1:2 before and after UV exposure, respectively. Finally, a seventh spectrum 240 and an eighth spectrum 242 correspond to a combination of 3-hydroxy-2-methoxy-cyclo-2-enone and avobenzone at a ratio of 2:1 before and after UV exposure, respectively.
A first spectrum 410 and a second spectrum 412 are for avobenzone before and after UV exposure. […]

Compound | UV absorption ([1]; FIG. 1) | absorbance at 320 nm relative to strongest absorbance ([1]; at 320 nm, FIG. 1) | wavelength of strongest (maximum) UV absorption ([1]; compound alone) | change of UV absorption after UV exposure (photostability) [2]
3-Hydroxy-2-methoxy-cyclo-2-enone | relatively low | drops off by approximately half | around 262 nm | dropped overall
COc1ccc(C(=O)CC(=O)c2ccc(C(C)(C)C)cc2)cc1 [avobenzone, reference compound] | relatively low | – | – | dropped overall
